Results on 37 compounds are retold here after patent US6475746B1, “Method of obtaining a composition comprising a 5-HT1D selective compound” (Synaptic Pharmaceutical Corporation, priority 1990, dated 2002).

Read-outs that look alike come from different tables or passages of the source.

One data set has as its target Cloned Human 5-HT1D-2 (Homo sapiens, UniProt P28222). The data set is described as follows: [3H]5-HT binding to cloned human 5-HT1D-2 (gene 11) in transfected cell membranes.
Another data set concerns the target Cloned Human 5-HT1D-1 (Homo sapiens, UniProt P28221). The data set is described as follows: [3H]5-HT binding to cloned human 5-HT1D-1 (gene 8-30-84) in transfected cell membranes.
Data set [1] addresses Human Native Membranes 5-HT1D. The settings on record: literature values (footnotes a, b, c), read-out: Estimated equilibrium dissociation constants (Ki values); cited from earlier work.
Data set [2] addresses Cloned Canine 5-HT1D-1 (RDC4) (Canis lupus familiaris, UniProt P11614). As to the kind of experiment: [3H]5-HT binding to cloned canine 5-HT1D-1 (RDC4) in transfected cell membranes.
The target of data set [3] is T1, cloned rat 5-HT1B receptor (Rattus norvegicus, UniProt P28564).
T1 construct: expressed in transfected cells; host or cells: Cos-7 cells, transient; membrane fraction
T1 sequence (P28564 whole entry): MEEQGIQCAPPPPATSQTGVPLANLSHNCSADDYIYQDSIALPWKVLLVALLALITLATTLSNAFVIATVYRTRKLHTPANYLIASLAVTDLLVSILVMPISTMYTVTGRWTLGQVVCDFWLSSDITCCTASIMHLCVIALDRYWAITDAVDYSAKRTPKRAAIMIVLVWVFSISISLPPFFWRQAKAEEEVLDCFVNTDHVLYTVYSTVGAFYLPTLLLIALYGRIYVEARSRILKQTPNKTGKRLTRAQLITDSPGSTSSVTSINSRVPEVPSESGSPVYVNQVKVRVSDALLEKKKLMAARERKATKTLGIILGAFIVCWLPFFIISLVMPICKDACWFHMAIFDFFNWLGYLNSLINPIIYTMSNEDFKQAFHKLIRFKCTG
In kind it is binding. As to the method:
To islolate the putative rat homolog of the 5-HT1D gone, a rat library was screened at high stringency using a human 5-HT1D sequence as a probe. […] To identify the pharmacological profile of this receptor, radioligand binding assays were performed on a membrane fraction derived from the transfected cells.

The subject of a further data set is human 5-HT1D clone. As to the kind of experiment: Radioligand binding to human 5-HT1D clone (comparison with rat clone).
The mark [4] stands for this setting: read-out: Estimated equilibrium dissociation constants (Ki values), [3H]5-HT displacement, membranes of LM (tk−) cells stably transfected, Cheng-Prusoff.

Cloned Canine 5-HT1D-1 (RDC4), sequence (P11614 whole entry): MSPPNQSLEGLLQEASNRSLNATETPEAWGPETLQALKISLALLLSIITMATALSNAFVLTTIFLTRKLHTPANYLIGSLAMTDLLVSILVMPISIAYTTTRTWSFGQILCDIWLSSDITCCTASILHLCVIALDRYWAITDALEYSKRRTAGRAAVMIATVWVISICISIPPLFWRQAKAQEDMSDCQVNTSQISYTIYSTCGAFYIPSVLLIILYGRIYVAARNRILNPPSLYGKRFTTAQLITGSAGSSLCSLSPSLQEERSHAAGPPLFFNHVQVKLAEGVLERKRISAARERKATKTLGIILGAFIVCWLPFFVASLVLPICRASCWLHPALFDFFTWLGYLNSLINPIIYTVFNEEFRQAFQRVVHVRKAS
Cloned Human 5-HT1D-1, sequence (P28221 whole entry): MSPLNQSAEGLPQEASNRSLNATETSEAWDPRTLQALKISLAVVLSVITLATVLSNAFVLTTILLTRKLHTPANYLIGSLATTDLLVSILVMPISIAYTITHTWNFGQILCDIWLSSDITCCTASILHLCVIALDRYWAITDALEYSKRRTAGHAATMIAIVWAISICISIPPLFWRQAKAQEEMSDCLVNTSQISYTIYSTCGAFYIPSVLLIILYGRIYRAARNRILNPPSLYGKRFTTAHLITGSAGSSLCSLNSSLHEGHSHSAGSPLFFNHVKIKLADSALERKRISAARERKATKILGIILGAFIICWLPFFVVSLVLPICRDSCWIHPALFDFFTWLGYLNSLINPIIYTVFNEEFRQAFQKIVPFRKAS
Cloned Human 5-HT1D-2, sequence (P28222 whole entry): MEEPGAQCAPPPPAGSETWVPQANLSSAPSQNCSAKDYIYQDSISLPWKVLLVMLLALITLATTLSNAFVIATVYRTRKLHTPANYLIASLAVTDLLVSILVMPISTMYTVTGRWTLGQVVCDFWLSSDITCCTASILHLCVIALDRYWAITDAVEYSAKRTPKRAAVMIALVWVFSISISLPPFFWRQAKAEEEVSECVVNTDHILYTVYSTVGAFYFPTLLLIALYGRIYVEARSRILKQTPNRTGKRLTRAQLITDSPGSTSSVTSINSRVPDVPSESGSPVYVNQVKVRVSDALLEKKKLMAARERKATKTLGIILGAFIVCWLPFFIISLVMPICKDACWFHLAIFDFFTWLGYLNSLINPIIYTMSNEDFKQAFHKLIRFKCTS

Consider `c1ccc2c(N3CCNCC3)cccc2c1` [1-Napthylpiperazine], for which the figures for the Ki at Cloned Human 5-HT1D-2 (setting [4]) and on Cloned Human 5-HT1D-1 (setting [4]) were 12 ± 2 nM and 7.4 ± 0.6 nM, respectively.

Take `Cc1[nH]c2ccc(O)cc2c1CCN` [2-methyl-5-HT]: the Ki in data set [1] is 1700 nM; in data set [2] (setting [4]) it was 444 ± 30 nM; on Cloned Human 5-HT1D-2 (setting [4]), 860 ± 109 nM; at Cloned Human 5-HT1D-1 (setting [4]) it was 915 ± 68 nM.

For `NCCc1c[nH]c2ccc(OCc3ccccc3)cc12` [5-Benzoxyltryptamine], the results for the Ki at Cloned Human 5-HT1D-2 (setting [4]) and on Cloned Human 5-HT1D-1 (setting [4]) were 19 ± 8 nM and 9.6 ± 3 nM, respectively.

On to `NCCc1c[nH]c2ccc(C(N)=O)cc12` [5-Carboxamidotryptamine], for which the “affinity for the binding site” value in data set [2] (RDC4-transfected cells) is “high affinity”. Moreover, in data set [2] (setting [4]), the Ki was 0.92 ± 0.06 nM.

In the case of `NCCc1c[nH]c2ccc(O)cc12` [5-Hydrozytryptamine], the Ki in data set [1] was 6.5 nM; in data set [2] (setting [4]), 5 ± 1.4 nM.

For `COc1ccc2[nH]cc(CCN)c2c1` [5-Methoxytryptamine], in data set [1], the Ki is 6.2 nM.

For the compound `COc1ccc2[nH]cc(CCN(C)C)c2c1` [5-methoxy-DMT], the Ki in data set [2] (setting [4]) is 5.1 ± 1.7 nM.

As for `Oc1ccc2c(CCC3CCNCC3)c[nH]c2c1` [6-OH-indalpine], the “ability to compete for 3H-5-HT binding sites” value (“ability to compete” below) in data set [2] (RDC4-transfected cells) is listed as “unable to compete”.

For `COc1cc(CC(C)N)c(OC)cc1I` (stereo not shown) [DOI], the Ki in data set [1] is 670 nM; in data set [2] (setting [4]) it was 729 ± 102 nM; at Cloned Human 5-HT1D-2 (setting [4]), 1670 ± 451 nM; at Cloned Human 5-HT1D-1 (setting [4]) it was 714 ± 81 nM.

On to `CCCN(CCC)C1CCc2cccc(O)c2C1` (stereo not shown) [DPAT], for which the Ki is 340 nM in data set [1] and 86 ± 21 nM in data set [2] (setting [4]).

Take `CCCN(CCC)CCc1c[nH]c2ccc(C(N)=O)cc12` [Dipropyl-5-CT, dipropyl-5-carboxyamidotryptamine]: in data set [3], the “activity at the rat receptor” value was “essentially inactive”. Also, the inhibition constant (Ki) is 42 ± 4 nM at Cloned Human 5-HT1D-2 (setting [4]) and 13 ± 1 nM on Cloned Human 5-HT1D-1 (setting [4]).

For the compound `CN1C[C@H](C(=O)N[C@]2(C)O[C@@]3(O)[C@@H]4CCCN4C(=O)[C@H](Cc4ccccc4)N3C2=O)C=C2c3cccc4[nH]cc(c34)C[C@H]21` [Ergotamine], the values for the Ki in data set [1] and in data set [2] were 0.3 nM and 1.9 ± 0.3 nM, respectively.

For `CN1[C@@H]2CC[C@H]1C[C@@H](OC(=O)c1c[nH]c3ccccc13)C2` [ICS 205-930], the “ability to compete” value in data set [2] (RDC4-transfected cells) is recorded as “unable to compete”.

With `O=C(c1ccc(F)cc1)C1CCN(CCn2c(=O)[nH]c3ccccc3c2=O)CC1` [Ketanserin], the Ki was greater than 10000 nM in data set [1], greater than 1000 nM in data set [2], 5200 ± 524 nM on Cloned Human 5-HT1D-2 and 73 ± 12 nM on Cloned Human 5-HT1D-1. The “ability to compete” value in data set [2] (RDC4-transfected cells) is on record as “unable to compete”.

On to `CN1C[C@H](CO)C=C2c3cccc4[nH]cc(c34)C[C@H]21` [Lysergol], for which the figures for the Ki on Cloned Human 5-HT1D-2 (setting [4]) and on Cloned Human 5-HT1D-1 (setting [4]) were 1.2 ± 0.1 nM and 0.63 ± 0.1 nM, respectively.

As to `CN1C[C@H](CNC(=O)OCc2ccccc2)C[C@@H]2c3cccc4c3c(cn4C)C[C@H]21` [Metergoline], the Ki in data set [1] is 12 nM; on Cloned Human 5-HT1D-2, 18 ± 3 nM; at Cloned Human 5-HT1D-1 it was 5.8 ± 1.1 nM.

Regarding `CSc1ccc2c(c1)C(N1CCN(C)CC1)Cc1ccccc1S2` (stereo not shown) [Methiothepin], the Ki in data set [1] is 17 nM; on Cloned Human 5-HT1D-2 (setting [4]), 25 ± 7 nM; at Cloned Human 5-HT1D-1 (setting [4]), 11 ± 2 nM.

Regarding `CC[C@@H](CO)NC(=O)[C@@H]1C=C2c3cccc4[nH]cc(c34)C[C@H]2N(C)C1` [Methylergonovine], the Ki on Cloned Human 5-HT1D-2 was 2.9 ± 1.5 nM; on Cloned Human 5-HT1D-1, 0.86 ± 0.36 nM.

With `CC[C@@H](CO)NC(=O)[C@@H]1C=C2c3cccc4c3c(cn4C)C[C@H]2N(C)C1` [Methysergide], the Ki in data set [2] (setting [4]) is 7.7 ± 1.7 nM; on Cloned Human 5-HT1D-2 (setting [4]), 25 ± 5 nM; on Cloned Human 5-HT1D-1 (setting [4]), 3.6 ± 0.6 nM.

As to `COc1ccccc1N1CCN(CCCCN2C(=O)c3ccccc3C2=O)CC1` [NAN-190], the values for the Ki on Cloned Human 5-HT1D-2 and on Cloned Human 5-HT1D-1 were 652 ± 48 nM and 194 ± 12 nM, respectively.

Take `Nc1ccc(CCN2CCN(c3cccc(C(F)(F)F)c3)CC2)cc1` [PAPP]: the values for the Ki (in data set [2] (setting [4]); at Cloned Human 5-HT1D-2 (setting [4]); at Cloned Human 5-HT1D-1 (setting [4])) were 35 ± 6 nM, 10 ± 1 nM and 3.1 ± 0.2 nM, respectively.

`Cc1ccc(N(CC2=NCCN2)c2cccc(O)c2)cc1` [Phentolamine]: the Ki is 2150 ± 685 nM at Cloned Human 5-HT1D-2 and 775 ± 72 nM at Cloned Human 5-HT1D-1.

For the compound `CC(C)NCC(O)COc1cccc2[nH]ccc12` (stereo not shown) [Pindolol], the Ki in data set [1] was greater than 10000 nM; in data set [2] it was greater than 1000 nM; at Cloned Human 5-HT1D-2 it was 4880 ± 302 nM; on Cloned Human 5-HT1D-1, 4110 ± 504 nM. In data set [2] (RDC4-transfected cells, 1 μm), the “effect of co-incubation on high affinity 3H-5-HT binding” value is on record as “not affected”. Besides, the “effect of masking ligand on specific binding or pharmacological profile” value is listed as “no significant effect” in data set [2] (transfected Cos-7 cells, RDC4, masking ligand 1 μM) and “no significant effect” at Cloned Human 5-HT1D-2 (transfected Cos-7 cells, peptide 11, masking ligand 1 μM).

For `COC(=O)[C@H]1[C@H]2C[C@H]3c4[nH]c5ccccc5c4CCN3C[C@H]2CC[C@@H]1O` [Rauwolscine], the Ki came out at 5.3 ± 2.9 nM in data set [2] and 16 ± 2 nM on Cloned Human 5-HT1D-1.

As to `Cc1nc2sccn2c(=O)c1CCN1CCC(=C(c2ccc(F)cc2)c2ccc(F)cc2)CC1` [Ritanserin], the results for the Ki (in data set [1]; on Cloned Human 5-HT1D-2; on Cloned Human 5-HT1D-1) were 3600 nM, 1200 ± 115 nM and 54 ± 10 nM, respectively.

Consider `CN1CCc2cc(Cl)c(O)cc2[C@@H](c2ccccc2)C1` [SCH-23390], for which the Ki worked out at 1210 ± 626 nM on Cloned Human 5-HT1D-2 and 676 ± 69 nM at Cloned Human 5-HT1D-1.

In the case of `O=C(CCCN1CCC2(CC1)C(=O)NCN2c1ccccc1)c1ccc(F)cc1` [Spiperone], the Ki in data set [2] was greater than 1000 nM; on Cloned Human 5-HT1D-2 it was greater than 10000 nM; on Cloned Human 5-HT1D-1 (setting [4]), 995 ± 96 nM.

Turning to `CNS(=O)(=O)Cc1ccc2[nH]cc(CCN(C)C)c2c1` [Sumatriptan], the “affinity” value at Cloned Human 5-HT1D-1 (refers to Table 1) is on record as “extremely high affinity”.

In the case of `FC(F)(F)c1cccc(N2CCNCC2)c1` [TFMPP], the values for the Ki in data set [1] and in data set [2] (setting [4]) were 210 nM and 112 ± 14 nM, respectively.

For the compound `NCCc1c[nH]c2ccccc12` [Tryptamine], the Ki in data set [1] was 46 nM; in data set [2] (setting [4]), 343 ± 15 nM.

On to `COC(=O)[C@@H]1[C@H]2C[C@H]3c4[nH]c5ccccc5c4CCN3C[C@@H]2CC[C@@H]1O` [Yohimbine], for which the Ki was 42 nM in data set [1], 32 ± 6 nM in data set [2] (setting [4]) and 22 ± 2 nM at Cloned Human 5-HT1D-1 (setting [4]).

For the compound `COc1cc(N)c(Cl)cc1C(=O)NC1CN2CCC1CC2` (stereo not shown) [Zacopride], the Ki (in data set [2]; on Cloned Human 5-HT1D-2; at Cloned Human 5-HT1D-1) was greater than 10000 nM each time.

On to `CC(C)(C)NCC(O)COc1cccc2[nH]c(C#N)c(I)c12` (stereo not shown) [[^125I]iodocyanopindolol], for which the Kd in data set [3] (Cos-7 membranes, in the presence of 3 μM isoproterenol, read-out: Kd of [125I]iodocyanopindolol) was 0.16 nM.

In the case of `CC(C)(C)NCC(O)COc1cccc2[nH]c(C#N)c([125I])c12` (stereo not shown) [[^125I]iodocyanopindolol], in the data set with human 5-HT1D clone (at 1 nM), the “specific binding of [125I]I-CYP” value is listed as “no specific binding detected”.

For the compound `Clc1cccc(N2CCNCC2)c1` [mCPP], the Ki in data set [1] was 1200 nM; in data set [2] (setting [4]), 329 ± 80 nM; on Cloned Human 5-HT1D-2 (setting [4]), 361 ± 31 nM; on Cloned Human 5-HT1D-1 (setting [4]), 216 ± 20 nM.

On to Corynanthine, for which the Ki in data set [1] is greater than 10000 nM.

Regarding ^3H-5-HT, the Kd was 4 nM at human 5-HT1D clone (read-out: Kd of [3H]5-HT); roughly 3 nM in data set [2] (read-out: KD of radioligand (apparent high affinity), RDC4-transfected Cos-7 and Ltk- cells); 3.6 nM in data set [2] (read-out: Kd of radioligand, Ltk- cells transfected with RDC4); 3 nM in data set [2] (read-out: affinity of radioligand binding, transiently transfected Cos-7 cells, RDC4).
